20 molecules from patent US20200392158A1, “INHIBITORS OF LEUCINE RICH REPEAT KINASE 2” (GLAXOSMITHKLINE INTELLECTUAL PROPERTY DEVELOPMENT LIMITED, priority 2017, published 2020) can be followed below.

Experiment [1] has as its target T1, full length G2019 human LRRK2 (Homo sapiens, UniProt Q5S007, R50H).
T1 construct: made in house; host or cells: HEK293 6E cells transduced with BacMam virus (virus generated in Sf9 cells)
The experiment in a line: Full length G2019 human LRRK2 inhibition mass spectrometry assay. Conditions: LRRKtide to phospho-LRRKtide conversion, RapidFire MS, 2 mM ATP. Type of experiment: biochemical. A digest of the protocol:
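Inhibition taken as reduced LRRKtide phosphorylation, quantified by RapidFire-coupled triple-quadrupole MS as product/(product+substrate) peak area. Reaction: 2 mM ATP, 25 μM peptide, ~25 nM full-length G2019 Flag-LRRK2, Hepes pH 7.2 buffer, room temperature for 1 h. 11-point 1-in-4 dilutions from 100 μM; logistic fit gives IC50, reported as pIC50.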

In experiment [2] the target is T2, LRRK2 kinase in SH-SY5Y cells over-expressing recombinant full length LRRK2 (Homo sapiens, UniProt Q5S007).
T2 construct: A BacMam virus expressing full length recombinant LRRK2 was purchased from Invitrogen; host or cells: SH-SY5Y human neuroblastoma cells transduced with BacMam LRRK2 virus
T2 sequence (Q5S007 whole entry): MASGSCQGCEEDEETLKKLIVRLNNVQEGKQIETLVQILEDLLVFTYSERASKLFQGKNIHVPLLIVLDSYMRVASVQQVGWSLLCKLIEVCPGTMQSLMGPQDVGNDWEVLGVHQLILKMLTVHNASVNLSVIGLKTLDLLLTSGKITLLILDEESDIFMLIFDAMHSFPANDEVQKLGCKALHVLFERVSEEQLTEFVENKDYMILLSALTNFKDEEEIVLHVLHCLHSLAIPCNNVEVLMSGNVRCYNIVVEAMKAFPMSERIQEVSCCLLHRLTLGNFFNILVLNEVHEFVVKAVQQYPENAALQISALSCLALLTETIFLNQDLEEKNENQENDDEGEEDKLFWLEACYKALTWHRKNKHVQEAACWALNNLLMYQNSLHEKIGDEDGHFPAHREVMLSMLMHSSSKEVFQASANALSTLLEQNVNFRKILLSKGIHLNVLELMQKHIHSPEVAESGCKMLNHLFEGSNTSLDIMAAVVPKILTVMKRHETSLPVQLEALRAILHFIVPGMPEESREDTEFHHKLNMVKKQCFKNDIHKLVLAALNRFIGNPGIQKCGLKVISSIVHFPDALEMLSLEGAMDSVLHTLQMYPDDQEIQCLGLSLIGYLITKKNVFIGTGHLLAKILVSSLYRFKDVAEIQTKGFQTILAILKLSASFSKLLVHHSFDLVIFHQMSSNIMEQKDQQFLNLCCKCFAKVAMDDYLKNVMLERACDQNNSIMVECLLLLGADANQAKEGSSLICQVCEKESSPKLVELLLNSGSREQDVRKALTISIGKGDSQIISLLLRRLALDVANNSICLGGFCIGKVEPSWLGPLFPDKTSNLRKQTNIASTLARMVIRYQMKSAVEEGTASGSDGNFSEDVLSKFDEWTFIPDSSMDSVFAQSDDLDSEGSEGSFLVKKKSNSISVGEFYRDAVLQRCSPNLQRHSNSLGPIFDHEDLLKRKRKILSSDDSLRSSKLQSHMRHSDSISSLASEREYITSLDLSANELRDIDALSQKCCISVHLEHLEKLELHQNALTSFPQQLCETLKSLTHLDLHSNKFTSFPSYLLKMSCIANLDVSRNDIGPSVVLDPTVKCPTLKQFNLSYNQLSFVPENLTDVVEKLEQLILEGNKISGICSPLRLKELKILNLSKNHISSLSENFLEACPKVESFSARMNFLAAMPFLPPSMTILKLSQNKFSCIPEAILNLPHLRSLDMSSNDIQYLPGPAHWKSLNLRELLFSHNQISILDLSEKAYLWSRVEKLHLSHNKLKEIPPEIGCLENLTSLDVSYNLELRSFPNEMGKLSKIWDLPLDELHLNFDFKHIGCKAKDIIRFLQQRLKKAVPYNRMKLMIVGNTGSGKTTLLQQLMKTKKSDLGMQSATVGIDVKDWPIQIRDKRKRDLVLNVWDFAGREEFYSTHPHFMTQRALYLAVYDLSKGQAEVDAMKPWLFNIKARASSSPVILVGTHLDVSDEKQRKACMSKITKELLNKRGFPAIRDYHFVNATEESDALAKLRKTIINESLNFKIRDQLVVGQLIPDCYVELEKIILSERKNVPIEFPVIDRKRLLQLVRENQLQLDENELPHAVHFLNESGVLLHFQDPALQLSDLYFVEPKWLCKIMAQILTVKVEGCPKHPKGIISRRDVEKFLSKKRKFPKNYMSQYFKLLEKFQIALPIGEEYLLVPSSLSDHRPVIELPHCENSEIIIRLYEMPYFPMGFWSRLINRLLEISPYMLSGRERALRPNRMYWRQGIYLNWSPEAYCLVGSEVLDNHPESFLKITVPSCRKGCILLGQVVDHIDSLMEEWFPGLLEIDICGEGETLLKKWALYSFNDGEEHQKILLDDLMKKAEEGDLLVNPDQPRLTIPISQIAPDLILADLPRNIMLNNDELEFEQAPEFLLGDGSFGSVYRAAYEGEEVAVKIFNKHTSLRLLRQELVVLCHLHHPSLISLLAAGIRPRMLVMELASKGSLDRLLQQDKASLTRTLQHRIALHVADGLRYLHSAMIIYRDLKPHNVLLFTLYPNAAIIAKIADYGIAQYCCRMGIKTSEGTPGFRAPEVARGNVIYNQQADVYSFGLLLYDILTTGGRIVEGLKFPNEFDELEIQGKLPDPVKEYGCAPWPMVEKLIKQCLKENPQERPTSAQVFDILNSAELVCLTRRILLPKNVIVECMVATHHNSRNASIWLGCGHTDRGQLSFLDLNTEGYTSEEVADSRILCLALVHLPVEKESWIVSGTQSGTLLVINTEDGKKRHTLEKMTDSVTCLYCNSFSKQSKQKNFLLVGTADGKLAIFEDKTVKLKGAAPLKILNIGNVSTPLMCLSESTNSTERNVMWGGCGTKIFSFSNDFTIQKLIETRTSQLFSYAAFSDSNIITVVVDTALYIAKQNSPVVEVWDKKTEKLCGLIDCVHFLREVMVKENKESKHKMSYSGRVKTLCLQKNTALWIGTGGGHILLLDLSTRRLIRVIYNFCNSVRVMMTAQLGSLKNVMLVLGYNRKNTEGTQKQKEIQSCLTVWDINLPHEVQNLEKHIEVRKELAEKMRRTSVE
Description: Recombinant cellular LRRK2 AlphaScreen assay (LRRK2 Ser935 phosphorylation). The class given is cell-based. Conditions: 60 min. The essentials: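 Read-out is AlphaScreen of LRRK2 pSer935 over total LRRK2 in lysates of SH-SY5Y cells over-expressing full-length LRRK2 via BacMam (24 h transduction). Cells were exposed 60 min at 37 °C to an 11-point 1-in-4 dilution series starting at 10 uM; sigmoidal fit.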
In general terms: Alpha assays give light when donor and acceptor beads are brought close together.

SMILES strings stand for the structures. pIC50: −log10 of the molar value.

T1 sequence (Q5S007 with tags, fused parts or gaps R50H): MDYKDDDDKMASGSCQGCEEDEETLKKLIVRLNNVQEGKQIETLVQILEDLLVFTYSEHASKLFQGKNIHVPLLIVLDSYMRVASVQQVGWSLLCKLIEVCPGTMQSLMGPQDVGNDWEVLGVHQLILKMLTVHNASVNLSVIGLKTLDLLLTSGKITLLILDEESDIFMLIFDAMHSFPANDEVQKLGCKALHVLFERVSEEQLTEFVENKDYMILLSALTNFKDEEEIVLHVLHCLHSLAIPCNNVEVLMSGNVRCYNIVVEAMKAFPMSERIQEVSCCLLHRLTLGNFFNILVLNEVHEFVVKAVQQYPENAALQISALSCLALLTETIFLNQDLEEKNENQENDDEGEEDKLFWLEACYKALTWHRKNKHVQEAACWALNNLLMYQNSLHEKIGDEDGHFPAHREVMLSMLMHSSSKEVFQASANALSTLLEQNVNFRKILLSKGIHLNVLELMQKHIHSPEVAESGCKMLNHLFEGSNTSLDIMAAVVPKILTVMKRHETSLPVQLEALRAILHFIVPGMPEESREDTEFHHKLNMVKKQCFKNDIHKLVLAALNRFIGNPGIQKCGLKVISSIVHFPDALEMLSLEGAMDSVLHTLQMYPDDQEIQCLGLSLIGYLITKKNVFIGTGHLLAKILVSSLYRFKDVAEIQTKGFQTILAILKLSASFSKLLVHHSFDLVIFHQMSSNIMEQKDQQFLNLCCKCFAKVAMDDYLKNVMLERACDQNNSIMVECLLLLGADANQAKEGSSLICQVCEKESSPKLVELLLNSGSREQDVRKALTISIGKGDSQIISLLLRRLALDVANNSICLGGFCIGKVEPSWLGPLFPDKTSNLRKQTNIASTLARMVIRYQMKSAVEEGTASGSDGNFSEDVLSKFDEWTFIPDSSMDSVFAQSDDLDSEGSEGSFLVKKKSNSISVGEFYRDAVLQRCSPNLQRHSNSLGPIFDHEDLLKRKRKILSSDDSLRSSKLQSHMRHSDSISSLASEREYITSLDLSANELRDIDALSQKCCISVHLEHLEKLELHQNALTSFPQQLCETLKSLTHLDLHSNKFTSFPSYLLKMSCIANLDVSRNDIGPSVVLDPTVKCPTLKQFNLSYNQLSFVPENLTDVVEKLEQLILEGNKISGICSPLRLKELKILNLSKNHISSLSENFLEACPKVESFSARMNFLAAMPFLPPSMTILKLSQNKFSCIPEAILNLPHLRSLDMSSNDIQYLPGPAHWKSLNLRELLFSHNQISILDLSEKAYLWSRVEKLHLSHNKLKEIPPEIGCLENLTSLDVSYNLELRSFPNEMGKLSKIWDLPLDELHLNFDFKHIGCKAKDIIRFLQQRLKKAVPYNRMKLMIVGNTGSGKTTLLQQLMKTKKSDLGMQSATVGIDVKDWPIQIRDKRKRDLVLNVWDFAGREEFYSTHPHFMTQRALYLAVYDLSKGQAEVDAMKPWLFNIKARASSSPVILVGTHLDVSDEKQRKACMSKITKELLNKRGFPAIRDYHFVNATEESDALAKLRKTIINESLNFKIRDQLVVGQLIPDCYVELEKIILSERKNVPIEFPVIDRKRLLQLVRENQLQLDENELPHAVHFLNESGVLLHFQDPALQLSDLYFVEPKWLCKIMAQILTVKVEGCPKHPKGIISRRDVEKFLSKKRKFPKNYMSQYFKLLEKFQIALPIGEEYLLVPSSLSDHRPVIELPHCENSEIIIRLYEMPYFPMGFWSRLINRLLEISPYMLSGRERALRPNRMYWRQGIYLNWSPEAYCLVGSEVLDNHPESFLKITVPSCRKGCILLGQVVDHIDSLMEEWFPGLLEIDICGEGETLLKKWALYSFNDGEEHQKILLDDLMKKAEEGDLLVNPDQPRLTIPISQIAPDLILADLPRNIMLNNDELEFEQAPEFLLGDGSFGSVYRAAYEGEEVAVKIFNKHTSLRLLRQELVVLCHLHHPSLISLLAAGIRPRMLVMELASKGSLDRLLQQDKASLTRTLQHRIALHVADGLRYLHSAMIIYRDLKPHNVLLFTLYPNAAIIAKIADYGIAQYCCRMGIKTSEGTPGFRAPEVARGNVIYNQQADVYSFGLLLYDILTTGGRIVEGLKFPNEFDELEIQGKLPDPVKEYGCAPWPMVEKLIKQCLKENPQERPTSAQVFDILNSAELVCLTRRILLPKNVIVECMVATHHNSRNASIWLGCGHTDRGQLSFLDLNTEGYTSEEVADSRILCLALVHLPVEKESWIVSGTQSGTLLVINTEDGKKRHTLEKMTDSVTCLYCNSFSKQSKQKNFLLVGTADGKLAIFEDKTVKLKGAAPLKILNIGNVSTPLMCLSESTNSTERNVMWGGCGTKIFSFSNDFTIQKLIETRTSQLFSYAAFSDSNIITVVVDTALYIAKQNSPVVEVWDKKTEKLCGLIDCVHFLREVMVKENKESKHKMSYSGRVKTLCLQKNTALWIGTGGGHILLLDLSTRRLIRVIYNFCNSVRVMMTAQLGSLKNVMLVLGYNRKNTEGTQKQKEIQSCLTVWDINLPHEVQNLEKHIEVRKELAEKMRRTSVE

By pIC50 is commonly meant −log10 of the IC50, conventionally taken in molar units. Regarding `Cc1c2c(nn1C(C)(C)C)OCC[C@@H](C)Nc1nc(ncc1Cl)N2` [E417, (11R)-5-tert-Butyl-14-chloro-4,11-dimethyl-8-oxa-2,5,6,12,16,17-hexaazatricyclo[11.3.1.0^3,7]heptadeca-1(16),3,6,13(17),14-pentaene], the pIC50 in experiment [1] and in experiment [2] was at least 7.00 throughout.
Regarding `Cc1c2c(nn1C1CCOCC1(C)C)OCC[C@@H](C)Nc1nc(ncc1Cl)N2` (stereo partly drawn) [E421, (11R)-14-Chloro-5-(3,3-dimethyloxan-4-yl)-4,11-dimethyl-8-oxa-2,5,6,12,16,17-hexaazatricyclo[11.3.1.0^3,7]heptadeca-1(16),3,6,13(17),14-pentaene], the pIC50 in experiment [1] and in experiment [2] was at least 7.00 each time.
Turning to `CCc1[nH]nc2c1Nc1ncc(Cl)c(n1)N[C@H](C)CCO2` [E430, (11R)-14-Chloro-4-ethyl-11-methyl-8-oxa-2,5,6,12,16,17-hexaazatricyclo[11.3.1.0^3,7]heptadeca-1(16),3,6,13(17),14-entaene], the pIC50 in experiment [1] and in experiment [2] was at least 7.00 each time.
Regarding `COC1CNc2nc(ncc2Cl)Nc2c(nn(C3CCOCC3F)c2C)OC1` (single isomer, unassigned) [E70, 14-Chloro-5-(3-fluorooxan-4-yl)-10-methoxy-4-methyl-8-oxa-2,5,6,12,16,17-hexaaza tricyclo[11.3.1.0^3,7]heptadeca-1(16),3,6,13(17),14-pentaene], the pIC50 in experiment [1] and in experiment [2] was at least 7.00 each time.
As to `CCOC(=O)C(C)(C)n1nc2c(c1C)Nc1ncc(Cl)c(n1)NCCCO2` [E188], the pIC50 in experiment [1] and in experiment [2] was at least 7.00 in each case.
In the case of `Cc1c2c(nn1CC(F)(F)F)OCCCNc1nc(ncc1Cl)N2` [E266, 14-Chloro-4-methyl-5-(2,2,2-trifluoroethyl)-8-oxa-2,5,6,12,16,17-hexaazatricyclo[11.3.1.0^3,7]heptadeca-1(16),3,6,13(17),14-pentaene], the negative-log IC50 (pIC50) in experiment [1] and in experiment [2] was at least 7.00 in each case.
On to `Cc1c2c(nn1C1CC(O)C1)OCC[C@@H](C)N(C)c1nc(ncc1Cl)N2` (stereo partly drawn) [E376, 3-[(11R)-14-Chloro-4,11,12-trimethyl-8-oxa-2,5,6,12,16,17-hexaazatricyclo[11.3.1.0^3,7]heptadeca-1(16),3,6,13(17),14-pentaen-5-yl] cyclobutan-1-ol], for which the pIC50 in experiment [1] and in experiment [2] was at least 7.00 in each case.
On to `Cc1c2c(nn1C1CCN(C3COC3)CC1(F)F)OCC[C@@H](C)Nc1nc(ncc1Cl)N2` (stereo partly drawn) [E411, (11R)-14-Chloro-5-[3,3-difluoro-1-(oxetan-3-yl)piperidin-4-yl]-4,11-dimethyl-8-oxa-2,5,6,12,16,17-hexaazatricyclo[11.3.1. 0^3,7]heptadeca-1(16),3,6,13(17),14-pentaene], for which the pIC50 in experiment [1] and in experiment [2] was at least 7.00 in each case.
Take `Cc1c2c(nn1C1CCN(C3CCOC3)CC1)OCC[C@@H](C)Nc1nc(ncc1Cl)N2` (stereo partly drawn) [E382, (11R)-14-Chloro-4,11-dimethyl-5-[1-(oxolan-3-yl)piperidin-4-yl]-8-oxa-2,5,6,12,16,17-hexaazatricyclo[11.3.1.0^3,7]heptadeca-1(16),3,6,13(17),14-pentaene]: the pIC50 in experiment [1] and in experiment [2] was at least 7.00 each time.
With `Cc1c2c(nn1C1CC3(COC3)C1)OCC[C@@H](C)Nc1nc(ncc1Cl)N2` [E301, (11R)-14-Chloro-4,11-dimethyl-5-{2-oxaspiro[3.3]heptan-6-yl}-8-oxa-2,5,6,12,16,17-hexaazatricyclo[11.3.1.0^3,7]heptadeca-1(17),3,6,13,15-pentaene], the pIC50 in experiment [1] and in experiment [2] was at least 7.00 each time.
In the case of `COCC1CCOc2nn(C3CCOCC3)c(C)c2Nc2ncc(Cl)c(n2)N1` (single isomer, unassigned) [E35, 14-chloro-11-(methoxymethyl)-4-methyl-5-(oxan-4-yl)-8-oxa-2,5,6, 12,16,17-hexaazatricyclo-[11.3.1.0^3,7]heptadeca-1(16),3,6,13(17),14-pentaene], the pIC50 in experiment [1] and in experiment [2] was at least 7.00 throughout.
On to `Cc1c2c(nn1C1CC(F)CN(C3COC3)C1)OCC[C@@H](C)Nc1nc(ncc1Cl)N2` (stereo partly drawn) [E410, (11R)-14-Chloro-5-[5-fluoro-1-(oxetan-3-yl)piperidin-3-yl]-4,11-dimethyl-8-oxa-2,5,6,12,16,17 hexaazatricyclo[11.3.1.0^3,7] heptadeca-1(16),3,6,13(17),14-pentaene], for which the pIC50 in experiment [1] and in experiment [2] was at least 7.00 each time.
As for `Cc1c2c(nn1C(C)C1CCOCC1)OCCCNc1nc(ncc1Cl)N2` (single isomer, unassigned) [E186, 14-Chloro-4-methyl-5-[1-(oxan-4-yl)ethyl]-8-oxa-2,5,6,12,16,17-hexaazatricyclo[11.3.1.0^3,7]heptadeca-1(16), 3,6,13(17),14-pentaene], the pIC50 in experiment [1] and in experiment [2] was at least 7.00 each time.
For `Cc1c2c(nn1C1CCC(C)CC1)OCCC(C)Nc1nc(ncc1Cl)N2` (single isomer, unassigned) [E259, 14-Chloro-4,11-dimethyl-5-(4-methylcyclohexyl)-8-oxa-2,5,6,12,16,17-hexaazatricyclo[11.3.1.0^3,7] heptadeca-1(16),3,6,13(17),14-pentaene], the pIC50 in experiment [1] and in experiment [2] was at least 7.00 throughout.
As for `COCC1CCOc2nn(C3CCOCC3F)c(C)c2Nc2ncc(Cl)c(n2)N1` (single isomer, unassigned) [E351, 14-Chloro-5-(3-fluorooxan-4-yl)-11-(methoxymethyl)-4-methyl-8-oxa-2,5,6,12,16,17-hexaazatricyclo [11.3. 1.0^3,7]heptadeca-1(16),3,6,13(17),14-pentaene], the pIC50 in experiment [1] and in experiment [2] was at least 7.00 in each case.
Regarding `Cc1c2c(nn1C1CN(C3CCOCC3)C1)OCCCNc1nc(ncc1Cl)N2` [E366, 14-Chloro-4-methyl-5-[1-(oxan-4-yl)azetidin-3-yl]-8-oxa-2,5,6,12, 16,17-hexaazatricyclo[11.3.1.0^3,7]heptadeca-1(16),3,6,13(17),14-pentaene], the pIC50 in experiment [1] and in experiment [2] was at least 7.00 in each case.
Consider `C#Cc1cnc2nc1N[C@H](C)CCOc1nn(C3CCOCC3)c(C)c1N2` [E401, (11R)-14-Ethynyl-4,11-dimethyl-5-(oxan-4-yl)-8-oxa-2,5,6,12,16,17-hexaazatricyclo[11.3.1.0^3,7]heptadeca-1(16),3,6,13(17),14-pentaene], for which the pIC50 in experiment [1] and in experiment [2] was at least 7.00 each time.
In the case of `Cc1c2c(nn1C1CCOCC1)OCCC(C(F)F)Nc1nc(ncc1Cl)N2` (single isomer, unassigned) [E88, 14-chloro-11-(difluoromethyl)-4-methyl-5-(oxan-4-yl)-8-oxa-2,5,6, 12,16,17-hexaazatricyclo[11.3.1.0^3,7]heptadeca-1(16),3,6,13(17),14-pentaene], the negative-log IC50 (pIC50) in experiment [1] and in experiment [2] was at least 7.00 throughout.
In the case of `C[C@@H]1CCOc2n[nH]c(Cl)c2Nc2ncc(Cl)c(n2)N1` [E397, (11R)-4,14-Dichloro-11-methyl-8-oxa-2,5,6,12,16,17-hexaazatricyclo[11.3.1.0^3,7]heptadeca-1(16),3,6,13(17),14-pentaene], the pIC50 in experiment [1] and in experiment [2] was at least 7.00 each time.
Consider `Cc1c2c(nn1C1CCOCC1)OCCCCNc1nc(ncc1Cl)N2` [E109, 15-Chloro-4-methyl-5-(oxan-4-yl)-8-oxa-2,5,6,13,17,18-hexaaza tricyclo[12.3.1.0^3,7]octadeca-1(17),3,6,14(18),15-pentaene], for which the pIC50 in experiment [1] and in experiment [2] was at least 7.00 throughout.
